Measured values as given in US10293004B2, “Butyrate-producing bacterium and use thereof” (KABUSHIKI KAISHA YAKULT HONSHA, priority 2014, dated 2019).

How the values were obtained:
mouse C57BL/6J [1] = assay: Single oral dose test of YIT 12355 to mouse given indigestible saccharide; assay type: in vivo; settings: cecum, single oral dose
Protocol: Mice were acclimatized and raised with F2 feed for 1 week and then divided into 4 groups such that the average body weight was almost equal among these groups. A control diet (Table 12) was administered thereto for 1 week. Then, the control diet was administered to the control group (−/− group) and the AH/− group for 2 weeks while purified feed containing maltitol (MAL-containing diet) was administered to the −/MAL group and the AH/MAL group for 2 weeks. A live cell suspension of YIT 12355 was administered at a single dose using a probe after the administration of the control diet for 1 week. At the final day of the test, each mouse was dissected, and the cecal contents were recovered. The cecal contents were subjected to the cell count measurement of YIT 12355. • Test material: Maltitol (5% mixed feed administration) • Administered bacterial strain: YIT 12355 • Animal species: Mouse C57BL/6J (4 weeks old; CLEA Japan, Inc.) • Group configuration: 7 mice×4 groups The bacterial solution (viable count: 3.1×10^9 cfu/mL, total cell count: 1.9×10^10 cells/mL) prepared in the preceding paragraph 2) was orally administered at a single dose of 0.2 mL (viable count: 6.2×10^8 cfu/mouse, total cell count: 3.8×10^9 cells/mouse) to each mouse using a probe. To the control group and the −/MAL group, 0.2 mL of physiological saline was administered instead of the bacterial solution. […] Then, the cecal contents were recovered. The cecal contents were diluted 10-fold with PBS and subjected to DNA extraction. DNA was extracted by the bead-phenol method described in the paragraph 4)a) of Example 5 from the 10-fold diluted solution of the intestinal tract contents. The cell count of YIT 12355 was measured by quantitative PCR using the obtained DNA as a template and the bacterial species-specific primers described in the paragraph 4)a) of Example 5. After fixation of a portion of the 10-fold diluted solution of the intestinal tract contents in a 4% solution of paraformaldehyde in PBS, the total cell count was measured by the DAPI counting method. The cell count of YIT 12355 was divided by the total cell count to calculate an occupancy (%). (Occupancy of YIT 12355) (%)=(Cell count of YIT 12355/Total cell count)×100 (Expression 5)

mouse C57BL/6J [2] = assay: Multiple oral dose test of YIT 12355 to mouse given indigestible saccharide; assay type: in vivo; settings: for Total cell count: DAPI counting method; for Cell count, A. hadrus: quantitative PCR, multiple oral dose; for Occupancy: cell count of YIT 12355/total cell count ×100; for Detected count: mice with A. hadrus detected / mice in group
Protocol: Mice were acclimatized and raised with F2 feed (manufactured by Funabashi Farm Co., Ltd.) for 1 week and then divided into 6 groups such that the average body weight was almost equal among these groups. Then, a control diet (Table 7) was administered thereto for 1 week and replaced with purified feed containing an indigestible material, which was then administered thereto for 2 weeks. A live cell suspension of YIT 12355 was orally administered twice a week a total of 4 times using a probe. At the final day of the test, each mouse was dissected, and the cecal and colonic contents were recovered and examined for an organic acid concentration. Also, the cell count of YIT 12355 in the intestinal tract contents was measured by quantitative PCR, while change in the whole intestinal flora was examined by use of PCR-DGGE (denaturing gradient gel electrophoresis). • Animal used: mouse C57BL/6J (4 weeks old; CLEA Japan, Inc.) • Test period: 3 weeks • Indigestible saccharide used: lactitol and maltitol • Dose of indigestible saccharide: 5% (w/w) • Administered bacterial strain: YIT 12355 • Dose of bacterium: live cell dose: 3.9 to 6.9×10^8 cfu/mouse (administration of a suspension in physiological saline using a probe). Total cell count including dead cells: […] cfu/mouse • Group configuration: 6 groups (5 mice/group) At the 2nd week of administration of the test feed, each mouse was anesthetized with diethyl ether and euthanized by cervical dislocation. After abdominal section, cecal tissues and colonic tissues were excised to recover their contents. The cecal and colonic contents were diluted 10-fold with PBS and subjected to DNA extraction. DNA was extracted by the bead-phenol method from the 10-fold diluted solution of the intestinal tract contents. Specifically, 0.3 g of glass beads (diameter: 0.1 mm), 300 μL of a Tris-SDS solution (a mixed solution of 250 mL of 200 mM Tris-HCl, 80 mM EDTA, pH 9.0, and 50 mL of 10% SDS) and 500 μL of TE saturated phenol were added to 200 μL of the diluted solution of the intestinal tract contents, and the mixture was vigorously shaken for 30 seconds using FASTPREP FP120 cell disruptive equipment (power level: 5.0). After centrifugation at 15,000 rpm for 5 minutes, 400 μL of a phenol/chloroform/isoamyl alcohol (25:24:1) solution was added to 400 μL of the supernatant, and the mixture was shaken for 45 seconds using FASTPREP FP120 cell disruptive equipment (power level: 4.0). After centrifugation at 15,000 rpm for 5 minutes, 25 μL of 3 M sodium acetate (pH 5.4) and 250 μL of isopropanol were added to 250 μL of the supernatant and mixed therewith. After centrifugation at 15,000 rpm for 5 minutes, the supernatant was removed, and 500 μL of 70% ethanol was added thereto, followed by centrifugation again at 15,000 rpm for 5 minutes. The supernatant was removed, and the pellets were dried and dissolved in 1.0 mL of a TE buffer. The obtained DNA solution was diluted 10-fold with purified water to prepare a template DNA solution. For quantitative PCR, 7500 Real-Time PCR System (manufactured by Life Technologies Corp.) was used. The total volume of the reaction solution was set to 20 μL, and SYBR Premix Ex Taq II (Takara Bio Inc.) containing 1.0 μM each of primers, and the template DNA solution were mixed and then subjected to quantitative PCR. The reaction conditions involved heating at 95° C. for 2 minutes, followed by 40 repetitive cycles each involving reactions at 95° C. for 20 seconds, 55° C. for 20 seconds and 72° C. for 50 seconds, and subsequent reaction at 72° C. for 3 minutes. For subsequent Tm value analysis, after reaction at 60° C. for 1 minute, the temperature was elevated at a temperature gradient of 0.2° C./sec to 95° C. during which the fluorescence of SYBR Green I was measured to measure the dissociation temperature (Tm) of the double strand of the amplification product. […]

[3] = Turbidity (OD660) after anaerobic culture of bacterial strains in PYGA, PYSA or PYXA medium
Protocol: (§1) A frozen stock solution of each bacterial strain (a 10% (w/v) skim milk-2% sodium glutamate solution in which bacterial cells were suspended) (cell count: 2.0 to 5.5×10^10 cells/mL) was thawed, and the solution was inoculated at 1% to 4 mL of a PY liquid medium supplemented with 33 mM sodium acetate and 0.5 (w/v) % glucose (PYGA medium), followed by anaerobic culture at 37° C. for 24 hours. After the culture, the culture solution was inoculated at 1% to a fresh PYGA medium, followed by anaerobic culture at 37° C. for 24 hours. After the culture, the turbidity (OD660) of the culture solution was measured. Then, the culture solution was inoculated at 1% to a PY medium containing 0.5 (w/v) % L-sorbose or D-xylitol and 33 mM sodium acetate (the medium containing L-sorbose: PYSA, and the medium containing D-xylitol: PYXA), followed by anaerobic culture at 37° C. for 24 hours. Then, the turbidity (OD660) was measured.

[4] = Production of butyrate by each bacterial strain from L-sorbose and D-xylitol (ion-exclusion HPLC); settings: 24 hours, minus PYA blank
Protocol: as §1
After the completion of the culture, the organic acid concentration in the culture solution was quantified by ion-exclusion HPLC. In this operation, a culture solution in a PY medium supplemented with sodium acetate but without L-sorbose or D-xylitol (PYA medium) was used as a blank.
(HPLC Analysis Conditions) • Eluent: 15 mM perchloric acid-7% acetonitrile • pH adjuster: 15 mM perchloric acid-60 mM • tris(hydroxymethyl)aminomethane-7% acetonitrile • Separation column: Organic acid analysis column RSpak KC- • 811×2 (manufactured by Showa Denko K.K.) • Column temperature: 42° C. • Injected sample volume: 10 μL • Flow rate: 1.0 mL/min • Analysis time: 35 min • Detector: Waters 432 electric conductivity detector • Cell temperature: 45° C.
The amount of butyrate produced was calculated according to (Expression 1). Amount of butyrate produced=(Amount of butyrate produced by culture for 24 hours in a PYSA or PYXA medium)−(Amount of butyrate produced by culture for 24 hours in a PYA medium) (Expression 1)

[5] = Biochemical properties: saccharide fermentability (API-ZYM, Rapid ID32A API, API KENKI 20A); parameters: key: +: positive reaction; −: negative reaction; +^w: weak reaction
Description: (§2) Commercially available API-ZYM, Rapid ID32A API, and API KENKI 20A (SYSMEX bioMerieux Co., Ltd.) were used in the testing of biochemical properties of various bacterial strains. The testing method followed the product manuals.

[6] = Biochemical properties: enzymatic activity (API-ZYM, Rapid ID32A API, API KENKI 20A); parameters: key: +: positive reaction; −: negative reaction; +^w: weak reaction
Description: as §2

OC[C@@H](O)[C@@H](O[C@H]1O[C@H](CO)[C@@H](O)[C@H](O)[C@H]1O)[C@H](O)[C@@H](O)CO [—/MAL group, maltitol]
Total cell count (mouse C57BL/6J [1]; DAPI counting method): 10.9 ± 0.1 log10 (cells/g contents)
Cell count, A. hadrus YIT 12355 (mouse C57BL/6J [1]; quantitative PCR): <6.0 log10 (cells/g contents)
Occupancy (mouse C57BL/6J [1]; ratio to total cell count): 0.0%
Total cell count (mouse C57BL/6J [2]; Cecal contents): 11.0 ± 0.1 log10 cells/g contents
Cell count, A. hadrus (mouse C57BL/6J [2]; Cecal contents): 6.1 log10 cells/g contents
Occupancy (mouse C57BL/6J [2]; Cecal contents): 0.001%
Detected count (mouse C57BL/6J [2]; Cecal contents): (1/5)
Total cell count (mouse C57BL/6J [2]; Colonic contents): 11.0 ± 0.1 log10 cells/g contents
Occupancy (mouse C57BL/6J [2]; Colonic contents): 0.000%
Detected count (mouse C57BL/6J [2]; Colonic contents): (0/5)

OC[C@@H](O)[C@@H](O[C@@H]1O[C@H](CO)[C@H](O)[C@H](O)[C@H]1O)[C@H](O)[C@@H](O)CO [—/LAC group, lactitol]
Total cell count (mouse C57BL/6J [2]; Cecal contents): 11.1 ± 0.1 log10 cells/g contents
Cell count, A. hadrus (mouse C57BL/6J [2]; Cecal contents): 7.2 log10 cells/g contents
Occupancy (mouse C57BL/6J [2]; Cecal contents): 0.014%
Detected count (mouse C57BL/6J [2]; Cecal contents): (1/5)
Total cell count (mouse C57BL/6J [2]; Colonic contents): 11.1 ± 0.1 log10 cells/g contents
Occupancy (mouse C57BL/6J [2]; Colonic contents): 0.000%
Detected count (mouse C57BL/6J [2]; Colonic contents): (0/5)

Anaerostipes hadrus (Eubacterium hadrum) YIT 10092^T (DSM 3319^T) [reference compound]
Turbidity (OD660) ([3]; after anaerobic culture at 37° C. for 24 hours in PYGA liquid medium): 2.80
Turbidity (OD660) ([3]; anaerobic culture at 37° C. for 24 hours of 1% inoculum in PYSA (L-sorbose)): 2.56
Turbidity (OD660) ([3]; anaerobic culture at 37° C. for 24 hours of 1% inoculum in PYXA (D-xylitol)): 0.11
Amount of butyrate produced ([4]; D-Xylitol 0.5 (w/v) %, PYXA medium): -0.1 mmol/L
Amount of butyrate produced ([4]; L-Sorbose 0.5 (w/v) %, PYSA medium): 9.7 mmol/L
Aesculin [5]: −
D-Cellobiose [5]: +
D-Mannitol [5]: +
D-Raffinose [5]: −
D-Xylose [5]: +
Glycerol [5]: −
L-Arabinose [5]: +
L-Rhamnose [5]: −
L-Sorbitol [5]: +
Mallose [5]: +^w
Salicin [5]: +
Acid phosphatase [6]: +
Alkaline phosphatase [6]: −
Esterase (C4) [6]: +
Naphthol-AS-B1-phosphohydrolase [6]: +
α-Glucosidase [6]: −
β-Galactosidase [6]: +
β-Galactosidase-6-phosphate [6]: +
